In patent US20230107216A1, “PANTETHEINE DERIVATIVES AND USES THEREOF” (Comet Therapeutics, Inc., priority 2018, published 2023):
Read-outs that look alike come from different tables or passages of the source.

Legend:
[1] = tested on: Methylmalonic Acidemia (MMA) primary fibroblasts Tsi 5224; assay: Mitochondrial respiration, XFe96 Extracellular Flux Analyzer (OCR/ECAR), MMA fibroblasts Tsi 5224; assay type: cell-based; conditions: Homo sapiens, Fibroblast, read-out: Increase in Maximal Respiratory Capacity AUC;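 further: relative to vehicle DMSO control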
Protocol: The effect of the compounds of the present disclosure on mitochondrial respiration was measured with a XFe96 Extracellular Flux Analyzer (Seahorse Bioscience, Agilent Technologies) and Oxygen consumption Rate (OCR) and Extracellular acidification rate (ECAR) determined.
Cell culture and treatments. Primary adherent fibroblasts were cultured in minimum essential medium (MEM) (Gibco, 25030081) supplemented with 2 mM L-Glutamine (Gibco, 25030081), 15% fetal bovine serum (FBS) (Gibco, 26400044) and 1% penicillin/streptomycin (Gibco, 5140122) at 37° C. and 5% CO2. Cells were collected for either passaging or experiment at ˜70-80% confluence. Cells were obtained by trypsinization and seeded at 20000 cells/well in cell culture microplates (Seahorse Bioscience, 101085-004) and allowed to adhere for 16 hours in culture media.
By profiling different primary cells and/or optimizing their culture media or environmental components one can select cell lines and/or conditions that are appropriate for the biological or disease model. In the present example, 24 hours prior to OCR and ECAR profiling, media was changed to Dulbecco's Modified Eagle Medium (DMEM, Agilent Seahorse 103575-100) with the appropriate supplements for the different primary cells (10 mM glucose, 2 mM L-glutamine, 1 mM pyruvate, 10% FBS; 1 mM glucose, 2 mM L-glutamine, 1 mM pyruvate, 10% FBS; 10 mM glucose, 10% FBS; 5 mM glucose 10% FBS; 1 mM glucose 10% FBS). Cells used in this example were: Propionic Acidemia (PA) (GM00371, GM03590 Coriell Institute for Medical Research, Tsi 6337, Tsi 4626, Tsi 3618 Trans-Hit Bio), Methylmalonic Acidemia (MMA) (GM01673, Coriell Institute for Medical Research, Tsi 5224 Trans-Hit Bio), Branched chain ketoacid dehydrogenase kinase (BCKDK) (GM00612, GM00649 Coriell Institute for Medical Research), Subnormal activation of pyruvate dehydrogenase complex (PDH) (GM01503 Coriell Institute for Medical Research), Very long-chain acyl-CoA dehydrogenase (VLCAD) (GM17475), Leigh Syndrome (LS) (GM03672, GM13411 Coriell Institute for Medical Research), Pyruvate Carboxylase Deficiency (PC) (GM00444 Coriell Institute for Medical Research), Glutaric Acidemia-I (GA) (GM10653), Friedreich's Ataxia (FXN) (GM04078 Coriell Institute for Medical Research, Huntington's disease (HD) (GM21756 Coriell Institute for Medical Research), Ornithine Transcarbamylase Deficiency (OTC) (GM12756 Coriell Institute for Medical Research), Kearns-Sayre Syndrome (KSS) (GM06225 Coriell Institute for Medical Research).
One hour before the assay, the cells were washed with freshly prepared unbuffered serum free-Seahorse XF Assay medium (Seahorse Bioscience, North America, USA, 103575-100) with the same supplements as for the previous 24 hour incubation.
After baseline measurements of OCR, cells were challenged with compounds of the present disclosure at different concentrations (10 to 50 μM) or vehicle (DMSO, 0.1%) and a post-compound baseline was recorded. OCR was measured after sequentially adding to each well 1 μg/ml oligomycin (inhibitor of ATP synthase Sigma-Aldrich, 753531), then maximal OCR was determined with carbonyl cyanide 4-(trifluoromethoxy) phenylhydrazone (FCCP, Sigma-Aldrich, C2920), (uncoupler of oxidative phosphorylation) and 0.5 μM of rotenone (Sigma-Aldrich, R8875) plus antimycin A (Sigma-Aldrich, A8674) (inhibitors of mitochondrial complex I and III) for determination of rotenone-antimycin insensitive respiration together with Hoechst for nuclear staining in situ when normalized to cell counts. After the analysis and nuclear staining, the XFp microplate was transferred to the Cytation 5, and the nuclear images were captured, the individual nuclei were identified and counted by BioTek Gen5 software. Data were expressed as pmol of O2 per minute and normalized by nuclear staining and baselined to pre-compound addition.
Assay conditions were as stated below.
Assay specifics on assay conditions are indicated below when readouts were normalized to cell counts. […]

[2] = tested on: primary fibroblasts (healthy controls and PA, MMA, BCKDK, PDH, VLCAD, LS, PC, GA, VLCFA, KSS, FXN, HD); assay: Measurement of ROS (H2DCFDA) in primary fibroblasts; assay type: cell-based, human; conditions: Homo sapiens, procedure Example 812
Protocol: Primary adherent fibroblasts were cultured in minimum essential medium (MEM) (Gibco, 25030081) supplemented with 2 mM L-Glutamine (Gibco, 25030081), 15% fetal bovine serum (FBS) (Gibco, 26400044) and 1% penicillin/streptomycin (Gibco, 5140122) at 37° C. and 5% CO2. Cells were collected for either passaging or experiment at ˜70-80% confluence. Cells were obtained by trypsinization and seeded in cell culture microplates either white plate (Thermo Fisher Scientific, 152028) for luminescent measurement or black plate (Thermo Fisher Scientific, 165305) for fluorescent based read out for different assays listed below. Cells were obtained by trypsinization and […] were seeded and allowed to adhere for 16-18 hours to have confluency around 70-80% in the cell well with culture media. After 24 hours prior to measurements (37° C., 5% CO2) media was changed to Dulbecco's Modified Eagle Medium (DMEM, Agilent Seahorse cat #103575-100) with the appropriate supplements as stated below.
Primary fibroblasts assayed were Healthy controls (GM00041, GM05659, GM23974 Coriell Institute for Medical Research), Propionic Acidemia (PA) (GM00371, GM03590 Coriell Institute for Medical Research, Tsi 6337 Trans-Hit Bio), Methylmalonic Acidemia (MMA) (GM01673, Coriell Institute for Medical Research, Tsi 5224, Tsi 4290 Trans-Hit Bio), Branched chain ketoacid dehydrogenase kinase (BCKDK) (GM00612, GM00649 Coriell Institute for Medical Research), Subnormal activation of pyruvate dehydrogenase complex (PDH) (GM01503 Coriell Institute for Medical Research), Very long-chain acyl-CoA dehydrogenase (VLCAD) (GM17475), Leigh Syndrome (LS) (GM03672, GM13411 Coriell Institute for Medical Research), Pyruvate Carboxylase Deficiency (PC) (GM00444 Coriell Institute for Medical Research), Glutaric Acidemia-I (GA), Impaired VLCFA oxidation (VLCFA) (GM13262), Kearns-Sayre Syndrome (KSS) (GM06225 Coriell Institute for Medical Research), Friedreich's Ataxia (FXN), Huntington's disease (HD) (GM21756 Coriell Institute for Medical Research). Next, cells were treated with compounds (10 μM) and ROS H2DCFDA (22 μM) dye for 2 hours in PA, MMA lines and for 24h for the other fibroblast lines. Kinetic read was started immediately with a i3x plate reader (492/527 nm) for 60 minutes.
A total dead cell count was performed as described in Example 817 and only alive cells were used for analysis.

[3] = tested on: HepG2 cells; assay: Mitochondrial membrane potential (MITO-ID MP detection Kit); assay type: cell-based; conditions: Homo sapiens, 168 h, 7 days
Protocol: HepG2 cells (ATCC, HB-8065) were cultured (5% CO2 at 37° C.) and plated in Poly-D-Lysine 384-Well plate (Corning, 356663) at a density of 160000 cells/mL in 50 μL/well. Culture and assay media consisted of DMEM (Gibco, 11995-065) supplemented with 1% Penicillin-Streptomycin and 10% FBS (Hyclone, SV30087.03).
MITO-ID® MP detection Kit (ENZ-51018) was used and manufacturer instructions followed. Cells were allowed to settle for 30 min at room temperature and further incubated overnight (37° C. and 5% CO2) for adherence. Next day, test compounds (50-10 μM) and vehicle DMSO (0.2%) were added at the recommended volumes to the 384-well plate for 7 days without media change using a Tecan compound dispenser. All the solutions and wash buffers were prepared and dispensed according to manufacturer's volumes for a 384-well plate format.

[4] = tested on: Peripheral blood mononuclear cells co-cultured with venular endothelial cells (HUVEC) (LPS system); assay: BioMAP LPS system; assay type: cell-based, human; conditions: Homo sapiens, HUVEC, 24 h, 10 uM, procedure of Example 827
[5] = tested on: Venular Endothelial cells (HUVEC) (4H system); assay: BioMAP 4H system (IL-4 and histamine); assay type: cell-based, human; conditions: procedure of Example 826; for % decrease in Eotaxin-3: 1 uM
[6] = tested on: monocyte-derived M1 macrophages; assay: M1 differentiation assay (macrophage TNFα, IL6, IL10 ELISA, FACS); assay type: cell-based, human; conditions: Homo sapiens, Macrophage
Protocol: Monocytes were isolated by positive isolation with CD14+ microbeads (Miltenyi, 130-050-201). Monocytes were 99% viable and were 96% purity as analyzed by FACS and CD14+ (BD, 563561). 100,000 monocytes along with compounds at the dose of 10 and 50 μM were allowed to differentiate to macrophages with 10 ng/ml GMCSF (R&D, 15-GM-050/CF) in RPMI complete media (Invitrogen, 22400089) with 15% FBS (Hyclone SV30087.03) and 1% Penicillin-Streptomycin (Gibco, 15140-122). On day 2 and 4 half the media was refreshed with fresh GM-CSF and compounds at 10 and 50 μM dose. On day 6 the macrophages were matured with GMCSF, IFNγ (R&D 285-IF-100/CF) and LPS (Sigma, L6143) in the presence of 10 μM and 50 μM of compounds. After 24h, supernatant was collected for the measurement of TNFα (DKW, 1117202) IL6 (DKW, 1110602), IL10 (DKW, 1110003) by ELISA. Macrophages were detached gently on ice with EDTA (Invitrogen, 15575-038) and analyzed by FACS (BD LSR Fortessa, 853492). Cells were stained for live/dead dye, surface and intracellular markers with fixation/permeabilization solution (BD, 554714) and ALIVE/DEAD™ Fixable Near-IR Dead Cell Stain Kit (BD, L34976), mouse anti human CD86 APC (BD, 555660), mouse anti-human CD163 PE (BD, 556018), mouse anti-human CD68 FITC (BD, 562117) or isotype controls anti-mouse IgG1 κ PE (BD, 559320) and anti-mouse IgG1 κ APC (BD, Anti mouse IgG1 κ APC (BD, 55571). Mature M1 macrophages were defined as CD86+CD68+CD163− and increase in TNFα, IL6, and decrease in IL-10.

[7] = Fibroblast, BCKD GM00612, Assay Condition A, read-out: Decreased ROS by at least 10%
[8] = MMA Tsi 5224, assay condition A (10 mM glucose, 2 mM L-glutamine, 1 mM pyruvate, 10% FBS)

CC(C)(CO)[C@@H](O)C(=O)NCCC(=O)NCCSC(=O)C(O)CO (stereo partly shown) [Compound 399]
activation at 10 µM ([1]; MMA Tsi 5224, assay condition D (1 mM glucose, 10% FBS)): ≥ 10%
inhibition at 10 µM [2, 7]: ≥ 10%
inhibition at 10 µM ([3]; 10 uM, read-out: % decrease in Mitochondrial Membrane Potential): > 30%

CC(C)(CO)[C@@H](O)C(=O)NCCC(=O)NCCS [Prep Ex 5]
inhibition at 10 µM ([4]; read-out: % decrease in IL-1α): ≥ 20%
inhibition at 10 µM ([4]; read-out: % decrease in IL-8): ≥ 10%
inhibition at 10 µM ([4]; read-out: % decrease in TissueFactor): ≥ 10%
activation at 10 µM ([4]; read-out: % increase in sTNFα): ≥ 20%
inhibition at 10 µM ([5]; Homo sapiens, HUVEC, 24 h, 10 uM, read-out: % decrease in E-Selectin): ≥ 20%

COC(=O)C[C@H](N)C(=O)SCCNC(=O)CCNC(=O)[C@H](O)C(C)(C)CO [Compound 451]
% decrease in Eotaxin-3 [5]: ≥10%

C/C=C/C(=O)CC(=O)SCCNC(=O)CCNC(=O)[C@H](O)C(C)(C)CO [Compound 36, (2R)-2,4-dihydroxy-3,3-dimethyl-N-[2-[(2-[[(4E)-3-oxohex-4-enoyl]sulfanyl]ethyl)carbamoyl]ethyl]butanamide]
activation at 10 µM [1, 8]: ≥ 10%
% decrease in Eotaxin-3 [5]: ≥10%

CC1(C)OC(=O)C(CC(=O)SCCNC(=O)CCNC(=O)[C@H](O)C(C)(C)CO)O1 (stereo partly drawn) [Compound 1238, S-(2-(3-((R)-2,4-dihydroxy-3,3-dimethylbutanamido)propanamido)ethyl) 2-(2,2-dimethyl-5-oxo-1,3-dioxolan-4-yl)ethanethioate]
inhibition at 10 µM ([6]; 10 uM, read-out: % decrease in Macrophage TNFα Secretion): ≥ 30%
activation at 10 µM [1, 8]: ≥ 10%
activation at 50 µM ([3]; 50 uM, read-out: % increase in Mitochondrial Membrane Potential): 20%

CC(=O)NCCCC(=O)OCC(C)(C)[C@@H](O)C(=O)NCCC(=O)NCCSC(=O)CC(=O)NCCc1c[nH]cn1 [Compound 633]
% decrease in Eotaxin-3 [5]: ≥10%

CCC(=O)C(C)C(=O)SCCNC(=O)CCNC(=O)[C@H](O)C(C)(C)CO (stereo partly drawn) [Compound 1251, S-(2-(3-((R)-2,4-dihydroxy-3,3-dimethylbutanamido)propanamido)ethyl) 2-methyl-3-oxopentanethioate]
inhibition at 50 µM ([6]; read-out: % decrease in Macrophage IL-6 Secretion): ≥ 30%
inhibition at 50 µM ([6]; read-out: % decrease in Macrophage TNFα Secretion): ≥ 30%
inhibition at 10 µM [2, 7]: ≥ 10%
inhibition at 10 µM ([2]; Fibroblast, VLCFA GM13262, Assay Condition C, read-out: Decreased ROS by at least 30%): ≥ 30%
inhibition at 10 µM ([2]; FXN GM04078, Assay Condition C, read-out: Decreased ROS by at least 10%): ≥ 10%
inhibition at 10 µM ([2]; FXN GM04078, Assay Condition C, read-out: Decreased ROS by at least 30%): ≥ 30%
inhibition at 50 µM ([3]; 50 uM, read-out: % decrease in Mitochondrial Membrane Potential): > 30%
